Measured values published in PMC11240139, “Exploring the antitumor potential of novel quinoline derivatives via tubulin polymerization inhibition in breast cancer; design, synthesis and molecular docking” (RSC Advances, 2024).

How the values were obtained:
[1] = test system: MOLT-4 (leukemia); test: NCI-60 SRB cytotoxicity screen; type: cell-based; conditions: Homo sapiens; MOLT-4, single dose 10 μM; read-out: growth inhibition (GI%)
[2] = test system: RPMI-8226 (leukemia); test: NCI-60 SRB cytotoxicity screen; type: cell-based; conditions: Homo sapiens; RPMI-8226, single dose 10 μM; read-out: growth inhibition (GI%)
[3] = test system: SR (leukemia); test: NCI-60 SRB cytotoxicity screen; type: cell-based; conditions: single dose 10 μM, read-out: growth inhibition (GI%)
[4] = test system: EKVX (non-small cell lung cancer); test: NCI-60 SRB cytotoxicity screen; type: cell-based; conditions: Homo sapiens, single dose 10 μM, read-out: growth inhibition (GI%)
[5] = test system: HOP-92 (non-small cell lung cancer); test: NCI-60 SRB cytotoxicity screen; type: cell-based; conditions: Homo sapiens; HOP-92, single dose 10 μM; read-out: growth inhibition (GI%)
[6] = test system: NCI-H226 (non-small cell lung cancer); test: NCI-60 SRB cytotoxicity screen; type: cell-based; conditions: Homo sapiens; NCI-H226, single dose 10 μM; read-out: growth inhibition (GI%)
[7] = test system: COLO 205 (colon cancer); test: NCI-60 SRB cytotoxicity screen; type: cell-based; conditions: Homo sapiens; COLO 205, single dose 10 μM; read-out: growth inhibition (GI%)
[8] = test system: HCC-2998 (colon cancer); test: NCI-60 SRB cytotoxicity screen; type: cell-based; conditions: Homo sapiens; HCC-2998, single dose 10 μM; read-out: growth inhibition (GI%)
[9] = test system: HCT-116 (colon cancer); test: NCI-60 SRB cytotoxicity screen; type: cell-based; conditions: Homo sapiens; HCT-116, single dose 10 μM; read-out: growth inhibition (GI%)
[10] = test system: HT29 (colon cancer); test: NCI-60 SRB cytotoxicity screen; type: cell-based; conditions: Homo sapiens, HT-29; HT29, single dose 10 μM; read-out: growth inhibition (GI%)
[11] = test system: KM12 (colon cancer); test: NCI-60 SRB cytotoxicity screen; type: cell-based; conditions: Homo sapiens; KM12, single dose 10 μM; read-out: growth inhibition (GI%)
[12] = test system: SW-620 (colon cancer); test: NCI-60 SRB cytotoxicity screen; type: cell-based; conditions: Homo sapiens; SW-620, single dose 10 μM; read-out: growth inhibition (GI%)
[13] = test system: SF-295 (CNS cancer); test: NCI-60 SRB cytotoxicity screen; type: cell-based; conditions: Homo sapiens; SF-295, single dose 10 μM; read-out: growth inhibition (GI%)
[14] = test system: SNB-75 (CNS cancer); test: NCI-60 SRB cytotoxicity screen; type: cell-based; conditions: Homo sapiens, SNB-75, SNB-75, single dose 10 μM; read-out: growth inhibition (GI%)
[15] = test system: LOX IMVI (melanoma); test: NCI-60 SRB cytotoxicity screen; type: cell-based; conditions: Homo sapiens, single dose 10 μM, read-out: growth inhibition (GI%)
[16] = test system: MALME-3M (melanoma); test: NCI-60 SRB cytotoxicity screen; type: cell-based; conditions: Homo sapiens, single dose 10 μM, read-out: growth inhibition (GI%)
[17] = test system: M14 (melanoma); test: NCI-60 SRB cytotoxicity screen; type: cell-based; conditions: Homo sapiens; M14, single dose 10 μM; read-out: growth inhibition (GI%)
[18] = test system: SK-MEL-28 (melanoma); test: NCI-60 SRB cytotoxicity screen; type: cell-based; conditions: Homo sapiens; SK-MEL-28, single dose 10 μM; read-out: growth inhibition (GI%)
[19] = test system: UACC-257 (melanoma); test: NCI-60 SRB cytotoxicity screen; type: cell-based; conditions: Homo sapiens; UACC-257, single dose 10 μM; read-out: growth inhibition (GI%)
[20] = test system: IGROV1 (ovarian cancer); test: NCI-60 SRB cytotoxicity screen; type: cell-based; conditions: Homo sapiens, IGROV-1; IGROV1, single dose 10 μM; read-out: growth inhibition (GI%)
[21] = test system: OVCAR-3 (ovarian cancer); test: NCI-60 SRB cytotoxicity screen; type: cell-based; conditions: Homo sapiens; OVCAR-3, single dose 10 μM; read-out: growth inhibition (GI%)
[22] = test system: NCI/ADR-RES (ovarian cancer); test: NCI-60 SRB cytotoxicity screen; type: cell-based; conditions: Homo sapiens, single dose 10 μM, read-out: growth inhibition (GI%)
[23] = test system: 786-0 (renal cancer); test: NCI-60 SRB cytotoxicity screen; type: cell-based; conditions: Homo sapiens; 786-0, single dose 10 μM; read-out: growth inhibition (GI%)
[24] = test system: A498 (renal cancer); test: NCI-60 SRB cytotoxicity screen; type: cell-based; conditions: Homo sapiens; A498, single dose 10 μM; read-out: growth inhibition (GI%)
[25] = test system: CAKI-1 (renal cancer); test: NCI-60 SRB cytotoxicity screen; type: cell-based; conditions: Homo sapiens; CAKI-1, single dose 10 μM; read-out: growth inhibition (GI%)
[26] = test system: SN12C (renal cancer); test: NCI-60 SRB cytotoxicity screen; type: cell-based; conditions: Homo sapiens, single dose 10 μM, read-out: growth inhibition (GI%)
[27] = test system: TK-10 (renal cancer); test: NCI-60 SRB cytotoxicity screen; type: cell-based; conditions: Homo sapiens; TK-10, single dose 10 μM; read-out: growth inhibition (GI%)
[28] = test system: PC-3 (prostate cancer); test: NCI-60 SRB cytotoxicity screen; type: cell-based; conditions: PC-3, single dose 10 μM; read-out: growth inhibition (GI%)
[29] = test system: DU-145 (prostate cancer); test: NCI-60 SRB cytotoxicity screen; type: cell-based; conditions: Homo sapiens; DU-145, single dose 10 μM; read-out: growth inhibition (GI%)
[30] = test system: MDA-MB-231/ATCC (breast cancer); test: NCI-60 SRB cytotoxicity screen; type: cell-based; conditions: Homo sapiens, MDA-MB-231, read-out: growth inhibition (GI%);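 note: growth inhibition in percent at a single 10 µM dose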

SMILES	inhibition at 10 µM [1] [%]	inhibition at 10 µM [2] [%]	inhibition at 10 µM [4] [%]	inhibition at 10 µM [5] [%]	inhibition at 10 µM [6] [%]	inhibition at 10 µM [7] [%]	inhibition at 10 µM [8] [%]	inhibition at 10 µM [9] [%]	inhibition at 10 µM [11] [%]	inhibition at 10 µM [12] [%]	inhibition at 10 µM [13] [%]	inhibition at 10 µM [14] [%]	inhibition at 10 µM [15] [%]	inhibition at 10 µM [16] [%]	inhibition at 10 µM [17] [%]	inhibition at 10 µM [18] [%]	inhibition at 10 µM [19] [%]	inhibition at 10 µM [20] [%]	inhibition at 10 µM [21] [%]	inhibition at 10 µM [22] [%]	also measured
CCc1cccc2cc(C=CC(=O)c3ccc(F)cc3)c(Cl)nc12 [Compound 3d, 3-(2-Chloro-8-ethylquinolin-3-yl)-1-(4-fluorophenyl)prop-2-en-1-one]	< 10	< 10	< 10	< 10	< 10	< 10	< 10	< 10	< 10	< 10	< 10	< 10	< 10	< 10	< 10	< 10	< 10	< 10	< 10	< 10	inhibition at 10 µM [3]: < 10%; inhibition at 10 µM [10]: < 10%; inhibition at 10 µM [23]: < 10%; inhibition at 10 µM [24]: < 10%; inhibition at 10 µM [25]: 11.8%; inhibition at 10 µM [26]: < 10%; inhibition at 10 µM [27]: < 10%; inhibition at 10 µM [28]: < 10%; inhibition at 10 µM [29]: < 10%; inhibition at 10 µM [30]: < 10%; melting point: 215 to 217 °C
CCc1cccc2cc(-c3cc(-c4ccc(OC)c(OC)c4)[nH]c(=S)c3C#N)c(Cl)nc12 [Compound 5b, 4-(2-Chloro-8-ethylquinolin-3-yl)-6-(3,4-dimethoxyphenyl)-2-thioxo-1,2-dihydropyridine-3-carbonitrile]	44.3	29.2	23.9	47.4	20.3	< 10	< 10	< 10	19.9	< 10	16.5	10.8	< 10	< 10	< 10	< 10	< 10	< 10	< 10	24.9	inhibition at 10 µM [3]: < 10%; inhibition at 10 µM [23]: 18.7%; inhibition at 10 µM [25]: 45.8%; inhibition at 10 µM [26]: 21.7%; inhibition at 10 µM [27]: < 10%; inhibition at 10 µM [28]: 21.3%; inhibition at 10 µM [29]: 20.2%; inhibition at 10 µM [30]: 19.1%; melting point: 280 to 282 °C
CCc1cccc2cc(C3C=C(c4ccc(F)cc4)NC(=S)N3)c(Cl)nc12 (stereo not drawn) [Compound 6d, 4-(2-Chloro-8-ethylquinolin-3-yl)-6-(4-fluorophenyl)-3,4-dihydropyrimidine-2(1H)-thione]	48.8	19.3	< 10	< 10	21.7	< 10	< 10	21.5	13.2	< 10	< 10	< 10	< 10	< 10	10.8	< 10	< 10	< 10	< 10	17	inhibition at 10 µM [10]: 28.3%; inhibition at 10 µM [23]: < 10%; inhibition at 10 µM [24]: < 10%; inhibition at 10 µM [25]: 26.1%; inhibition at 10 µM [26]: < 10%; inhibition at 10 µM [27]: < 10%; inhibition at 10 µM [28]: 22%; inhibition at 10 µM [29]: < 10%; inhibition at 10 µM [30]: < 10%; melting point: 220 to 222 °C
CCc1cccc2cc(C=CC(=O)c3ccc(Br)cc3)c(Cl)nc12 [Compound 3e, 1-(4-Bromophenyl)-3-(2-chloro-8-ethylquinolin-3-yl)prop-2-en-1-one]	< 10	< 10	< 10	< 10	< 10	< 10	< 10	< 10	< 10	< 10	< 10	< 10	< 10	< 10	< 10	< 10	< 10	< 10	< 10	< 10	inhibition at 10 µM [10]: < 10%; inhibition at 10 µM [23]: < 10%; inhibition at 10 µM [24]: < 10%; inhibition at 10 µM [25]: 12.8%; inhibition at 10 µM [26]: < 10%; inhibition at 10 µM [27]: < 10%; inhibition at 10 µM [28]: < 10%; inhibition at 10 µM [29]: < 10%; inhibition at 10 µM [30]: < 10%; melting point: 210 to 212 °C
